pIC50: −log10 of the molar value.
Tested on: SARS-CoV-2
Type: cell-based
Details: concentration reducing replication to 50% vs control, read-out: Antiviral activity

Structure (SMILES) | pIC50
CCC(C)C1OC2(CCC1C)CC1CC(CC=C(C)C(OC3CC(OC)C(OC4CC(OC)C(O)C(C)O4)C(C)O3)C(C)C=CC=C3COC4C(=NO)C(C)CC(C(=O)O1)C34O)O2 (centres unmarked) [Compound I-1] | > 6.00
CCC(C)C1OC2(CCC1C)CC1CC(CC=C(C)C(OC3CC(OC)C(OC4CC(OC)C(O)C(C)O4)C(C)O3)C(C)C=CC=C3COC4C(=NOCC(=O)NC)C(C)=CC(C(=O)O1)C34O)O2 (centres unmarked) [Compound I-124] | > 6.00

Source: patent EP4640688A1, “AVERMECTIN DERIVATIVE” (Meiji Seika Pharma Co., Ltd., priority 2022, dated 2024)
